The text below walks through data of US8519149B2, “Tricyclic compounds as mPGES-1 inhibitors” (Glenmark Pharmaceuticals S.A., priority 2010, dated 2013).

Structures are written as SMILES. Where only a bound is given, the exact number is not on record here.

For this assay, the target named is T1, Recombinant human mPGES-1 (Homo sapiens, UniProt O14684).
T1 sequence (O14684 1-152): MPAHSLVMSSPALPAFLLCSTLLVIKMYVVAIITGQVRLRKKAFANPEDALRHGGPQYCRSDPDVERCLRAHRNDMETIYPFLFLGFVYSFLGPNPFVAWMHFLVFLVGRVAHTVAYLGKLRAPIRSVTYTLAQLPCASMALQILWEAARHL
Nature of the assay: In-vitro mPGES-1 enzyme inhibition assay (PGE2 formation from PGH2, HTRF detection). Type of assay: biochemical. The settings on record: for inhibition at 1 µM: read-out: Percentage inhibition at 1 μM; for inhibition at 10 µM: 10 μM test compound, read-out: Percentage inhibition at 10 μM; for IC50: class symbols, selected examples. Summed up:
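IC50 values were derived by nonlinear regression of percent inhibition relative to enzyme reactions run without inhibitor. PGE2 formed from PGH2 with GSH was quantified by antibody-based HTRF after stannous chloride quench. Enzyme source was human mPGES-1 microsomes at 40-60 μg/mL protein; DMSO 0.5% (v/v).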
A general note: In TR-FRET formats the signal depends on donor and acceptor labels being close together.

Setting [1] is: 1 μM test compound, recombinant human mPGES-1 microsomal fraction.
[2] abbreviates: recombinant human mPGES-1 microsomal fraction.

As a reminder, the inhibition is the change of the read-out against control, counted positive when it falls. For orientation: IC50 means the concentration at which inhibition is half-maximal. In the case of `Cn1c(Nc2c(F)cccc2Cl)nc2cc(C(=O)Nc3ccc(C4CC4)cc3)c3c(c21)CC(C)(C)O3` [Example-167, 2-((2-Chloro-6-fluorophenyl)amino)-N-(4-cyclopropylphenyl)-1,7,7-trimethyl-7,8-dihydro-1H-benzofuro[4,5-d]imidazole-5-carboxamide], the IC50 was under 50 nM. Moreover, under setting [1], the inhibition at 1 µM is 96.9%. In addition, under setting [2], the inhibition at 10 µM was 98.3%.
`CC1(C)Cc2c(c(C(=O)NCc3ccc(F)cc3)cc3nc(Nc4c(Cl)cncc4Cl)[nH]c23)O1` [Example-26, 2-[(3,5-Dichloropyridin-4-yl)amino]-N-(4-fluorobenzyl)-7,7-dimethyl-7,8-dihydro-1H-furo[3,2-e]benzimidazole-5-carboxamide]: the IC50 was under 50 nM. Further, under setting [1], the inhibition at 1 µM was determined as 90.2%. For the same compound, the inhibition at 10 µM under setting [2] is 97.8%.
The matching figures for `CC1(C)Cc2c(c(C(=O)NCc3ccccc3C(F)(F)F)cc3nc(Nc4c(Cl)cncc4Cl)[nH]c23)O1` [Example-2, 2-[(3,5-Dichloropyridin-4-yl)amino]-7,7-dimethyl-N-[2-(trifluoromethyl)benzyl]-7,8-dihydro-1H-furo[3,2-e]benzimidazole-5-carboxamide]: under 50 nM, 97% and 99.6%.
On the same counts, the results for `CC1(C)Cc2c(c(C(=O)NCC3CCCCC3)cc3nc(Nc4c(F)cccc4Cl)[nH]c23)O1` [Example-42, 2-[(2-Chloro-6-fluorophenyl)amino]-N-(cyclohexylmethyl)-7,7-dimethyl-7,8-dihydro-1H-furo[3,2-e]benzimidazole-5-carboxamide] are under 50 nM, 83.2% and 89.9%.
Turning to `Cc1cccc(Cl)c1Nc1nc2cc(C(=O)Nc3cc(C4CC4)ccc3F)c3c(c2[nH]1)CC(C)(C)O3` [Example-136, 2-((2-Chloro-6-methylphenyl)amino)-N-(5-cyclopropyl-2-fluorophenyl)-7,7-dimethyl-7,8-dihydro-1H-benzofuro[4,5-d]imidazole-5-carboxamide], the IC50 was under 50 nM. Besides, under setting [1], the inhibition at 1 µM was determined as 89.4%. For the same compound, the inhibition at 10 µM under setting [2] turned out to be 96.9%.
As to `CC1(C)Cc2c(c(C(=O)Nc3ccc(F)cc3C(F)(F)F)cc3nc(Nc4c(F)cccc4Cl)[nH]c23)O1` [Example-117, 2-[(2-Chloro-6-fluorophenyl)amino]-N-[4-fluoro-2-(trifluoromethyl)phenyl]-7,7-dimethyl-7,8-dihydro-1H-furo[3,2-e]benzimidazole-5-carboxamide], the IC50 is under 50 nM. Also, the inhibition at 1 µM under setting [1] turned out to be 100%. Besides, the inhibition at 10 µM under setting [2] turned out to be 98.7%.
Take `CC1(C)Cc2c(c(C(=O)Nc3ccc(Br)cc3)cc3nc(Nc4c(Cl)cncc4Cl)[nH]c23)O1` [Example-8, N-(4-Bromophenyl)-2-[(3,5-dichloropyridin-4-yl)amino]-7,7-dimethyl-7,8-dihydro-1H-furo[3,2-e]benzimidazole-5-carboxamide]: the IC50 was under 50 nM. Moreover, the inhibition at 1 µM under setting [1] was 92.6%. Also, the inhibition at 10 µM under setting [2] was found to be 90.1%.
On to `CC(C)CCNC(=O)c1cc2nc(Nc3c(Cl)cccc3Cl)[nH]c2c2c1OC(C)(C)C2` [Example-46, 2-[(2,6-Dichlorophenyl)amino]-7,7-dimethyl-N-(3-methylbutyl)-7,8-dihydro-1H-furo[3,2-e]benzimidazole-5-carboxamide], for which the IC50 was under 50 nM. Also, the inhibition at 1 µM under setting [1] is 100%. For the same compound, the inhibition at 10 µM under setting [2] is 100%.
Regarding `CC1(C)Cc2c(c(C(=O)Nc3ccccc3C(F)(F)F)cc3nc(Nc4ccccc4Cl)[nH]c23)O1` [Example-79, 2-[(2-Chlorophenyl)amino]-7,7-dimethyl-N-[2-(trifluoromethyl)phenyl]-7,8-dihydro-1H-furo[3,2-e]benzimidazole-5-carboxamide], the IC50 lay within 50 to 100 nM. Further, the inhibition at 1 µM under setting [1] is 97.4%. The inhibition at 10 µM under setting [2] came to 91.9%.
For `Cc1nc(NC(=O)c2cc3nc(Nc4c(F)cccc4Cl)[nH]c3c3c2OC(C)(C)C3)sc1C` [Example-55, 2-[(2-Chloro-6-fluorophenyl)amino]-N-(4,5-dimethyl-1,3-thiazol-2-yl)-7,7-dimethyl-7,8-dihydro-1H-furo[3,2-e]benzimidazole-5-carboxamide], the IC50 is over 100 nM. Further, under setting [1], the inhibition at 1 µM was 91.8%. Besides, the inhibition at 10 µM under setting [2] was found to be 94.2%.
With `Cc1ccc(Nc2nc3cc(C(=O)Nc4ccc(C(F)(F)F)cc4)c4c(c3[nH]2)CC(C)(C)O4)c(C)n1` [Example-103, 2-[(2,6-Dimethylpyridin-3-yl)amino]-7,7-dimethyl-N-[4-(trifluoromethyl)phenyl]-7,8-dihydro-1H-furo[3,2-e]benzimidazole-5-carboxamide], under setting [1], the inhibition at 1 µM turned out to be 7.88%. Besides, under setting [2], the inhibition at 10 µM amounted to 25.8%.
As for `CC1(C)Cc2c(c(C(=O)Nc3ccc(C(F)(F)F)nc3)cc3nc(Nc4c(F)cccc4Cl)[nH]c23)O1` [Example-191, 2-((2-Chloro-6-fluorophenyl)amino)-7,7-dimethyl-N-(6-(trifluoromethyl)pyridin-3-yl)-7,8-dihydro-1H-benzofuro[4,5-d]imidazole-5-carboxamide], the IC50 was under 50 nM. Further, the inhibition at 1 µM under setting [1] was determined as 96.1%. Further, under setting [2], the inhibition at 10 µM is 96.3%.
The matching figures for `COCCn1c(Nc2c(Cl)cccc2Cl)nc2cc(C(=O)Nc3ccccc3C(F)(F)F)c3c(c21)CC(C)(C)O3` [Example-100, 2-[(2,6-Dichlorophenyl)amino]-1-(2-methoxyethyl)-7,7-dimethyl-N-[2-(trifluoromethyl)phenyl]-7,8-dihydro-1H-furo[3,2-e]benzimidazole-5-carboxamide]: under 50 nM, 96.6% and 95.6%.
Take `CC1(C)Cc2c(c(C(=O)Nc3ccc(Br)cc3)cc3nc(Nc4c(Cl)cccc4Cl)[nH]c23)O1` [Example-11, N-(4-Bromophenyl)-2-[(2,6-dichlorophenyl)amino]-7,7-dimethyl-7,8-dihydro-1H-furo[3,2-e]benzimidazole-5-carboxamide]: the IC50 is under 50 nM. The “Percentage inhibition at 1 μM” value (1 μM test compound, recombinant human mPGES-1 microsomal fraction, 1 µM) is reported as 97.45%. The inhibition at 1 µM under setting [1] came out at 100%. Moreover, the inhibition at 10 µM under setting [2] came to 100%.
Take `CC1(C)Cc2c(c(C(=O)NCC3CC3)cc3nc(Nc4c(Cl)cncc4Cl)[nH]c23)O1` [Example-21, N-(Cyclopropylmethyl)-2-[(3,5-dichloropyridin-4-yl)amino]-7,7-dimethyl-7,8-dihydro-1H-furo[3,2-e]benzimidazole-5-carboxamide]: the inhibition at 1 µM under setting [1] was 96.8%. In addition, under setting [2], the inhibition at 10 µM was found to be 99.8%.
The matching figures for `Cc1cc2c(o1)c(C(=O)Nc1ccc(C(F)(F)F)cc1)cc1nc(Nc3c(Cl)cncc3Cl)[nH]c12` [Example-32, 2-[(3,5-Dichloropyridin-4-yl)amino]-7-methyl-N-[4-(trifluoromethyl)phenyl]-1H-furo[3,2-e]benzimidazole-5-carboxamide]: 99% and 100%.
With `Cc1nc2c(o1)c(C(=O)Nc1ccc(C(C)(C)C)cc1)cc1nc(Nc3c(Cl)cccc3Cl)[nH]c12` [Example-180, N-(4-tert-Butylphenyl)-7-[(2,6-dichlorophenyl)amino]-2-methyl-8H-imidazo[4,5-e][1,3]benzoxazole-4-carboxamide], the IC50 is under 50 nM. Besides, the inhibition at 1 µM under setting [1] stood at 98.7%. In addition, the inhibition at 10 µM under setting [2] was 97.3%.
